The text below walks through data of patent US20190255144A1, “SPECIFIC OLIGOPEPTIDES AS ANTI-ANGIOGENIC DRUGS” (NEURONAX, priority 2014, published 2019).

Entries after “also recorded” stand apart in the source; their conditions may differ.

The test system of the experiment is chorioallantoic membrane (CAM) vascularization. As to the kind of experiment: Treatments on the chorioallantoic membrane (CAM), fluorescein angiography. In kind it is in vivo, chicken embryo. The settings on record: impregnated sponge on CAM at ED9; oligopeptide 250 μg/mL (9 hours), VEGF 10 ng/mL; listed as oligopeptide according to the invention. The text has this:
In fact, TSP-1 is known for inducing the apoptosis of endothelial cells. […] It is also a decisive process under certain physiological and pathological conditions (cancers in particular). This mechanism is controlled by numerous factors having either an inhibitor potential or an activator. So as to evaluate the main properties of these in vivo factors, the most common model is the CAM (chorioallantoic membrane) model from the chicken embryo (Ribatti et al., 2000). It offers the advantage of making it possible to test the pro- or anti-angiogenic factors during an active angiogenesis phase between the embryonic stages 4j and 10j. The major effects of the various molecules can therefore be evaluated in vivo. The model of the CAM can also be used in experimental tumor development. The grafting of human cancer cells onto the surface of the CAM is carried out in the 9-day embryonic stage. Three days after the grafting at ED12, the formation of a tumor is visible at the surface of the CAM. The latter can be treated topically during the 48 hours that follow this stage, and the tumors are sampled at ED14j. The fertilized eggs (Haas Poultry Farm, Strasbourg, France) are kept for 24 hours at 18° C. before the incubation is started up. […] The embryonic stages are determined from tables of Hamburger and Hamilton (H and H, 1951). […]

As to “—W—S-G-W—S—S—C—S—R—S—C-G- (WSGWSSCSRSCG; Oligopeptide derived from SCO-Spondin) [NX]”, the “Vascularization / microvascularization of the CAM (in words)” value is recorded as “inhibition of vascularization; also recorded: comparable to that of the Bevacizumab”.
